Measured values published in the NIST ThermoML archive (doi:10.1021/acs.jced.8b00765).
Values joined by “and” are separate entries in the source; they are usually repeats but may differ in a detail not shown here. Identical values can stand only once. Numbers after ± are expanded uncertainties.

How the values were obtained:
[1] = Liquid; for vapor or sublimation pressure: Closed cell (Static) method; for mass density: 101.33 kPa, Vibrating tube method
[2] = refractive index (Na D-line) (dimensionless); conditions: 293.15 K; 101.33 kPa; Liquid; Standard Abbe refractometry

Compound | vapor or sublimation pressure ([1]; 293.18 K) | vapor or sublimation pressure ([1]; 298.18 K) | vapor or sublimation pressure ([1]; 303.16 K) | vapor or sublimation pressure ([1]; 303.17 K) | mass density ([1]; 313.15 K) | vapor or sublimation pressure ([1]; 313.16 K) | refractive index [2] | vapor or sublimation pressure ([1]; 308.15 K) | vapor or sublimation pressure ([1]; 298.19 K) | vapor or sublimation pressure ([1]; 303.18 K) | other results
C=CCCCC [hex-1-ene] | 19.9 ± 0.3 kPa and 20 ± 0.3 kPa | 24.8 ± 0.3 kPa | 30.5 ± 0.3 kPa | 30.6 ± 0.3 kPa | 655 ± 1 kg/m3 | 45.1 ± 0.3 kPa | 1.388 ± 0.001 |  |  |  | vapor or sublimation pressure ([1]; 308.16 K): 37.2 ± 0.3 kPa; vapor or sublimation pressure ([1]; 313.15 K): 45.1 ± 0.3 kPa
CC(C)O [propan-2-ol] | 4.2 ± 0.3 kPa |  | 7.9 ± 0.3 kPa |  | 768 ± 1 kg/m3 | 14 ± 0.3 kPa | 1.377 ± 0.001 | 10.5 ± 0.3 kPa |  |  | vapor or sublimation pressure ([1]; 293.16 K): 4.2 ± 0.3 kPa; vapor or sublimation pressure ([1]; 298.17 K): 5.8 ± 0.3 kPa; vapor or sublimation pressure ([1]; 303.15 K): 7.8 ± 0.3 kPa; vapor or sublimation pressure ([1]; 313.14 K): 13.9 ± 0.3 kPa
CCCCC [pentane] | 56.6 ± 0.4 kPa | 68.5 ± 0.4 kPa |  | 82.2 ± 0.4 kPa |  |  | 1.358 ± 0.001 |  | 68.5 ± 0.4 kPa | 82.2 ± 0.4 kPa | vapor or sublimation pressure ([1]; 288.18 K): 46.5 ± 0.3 kPa; mass density ([1]; 293.15 K): 626 ± 1 kg/m3; vapor or sublimation pressure ([1]; 293.2 K): 56.6 ± 0.4 kPa; vapor or sublimation pressure ([1]; 308.17 K): 97.9 ± 0.4 kPa
C1CCCCC1 [cyclohexane] |  | 13.4 ± 0.3 kPa | 16.4 ± 0.3 kPa |  |  |  | 1.426 ± 0.001 | 20.3 ± 0.3 kPa | 13.1 ± 0.3 kPa | 16.4 ± 0.3 kPa | vapor or sublimation pressure ([1]; 293.17 K): 10.4 ± 0.3 kPa; vapor or sublimation pressure ([1]; 293.21 K): 10.6 ± 0.3 kPa; mass density ([1]; 308.15 K): 765 ± 1 kg/m3; vapor or sublimation pressure ([1]; 313.17 K): 24.9 ± 0.3 kPa
